The values below are quoted from earlier work in patent US10226403B2, “Composition and method for using medicament for endodontic irrigation, stem cell preparation and tissue regeneration” (priority 2012, dated 2019).

Read-outs that look alike come from different tables or passages of the source.

With `OCl` [Sodium hypochlorite, sodium hypochlorite], the effectiveness result was “highly effective”. Besides, the effectiveness entry (at 1.3-2.5%) is listed as “ineffective”.
